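The compound was tested at five concentrations on cells cultured in 96-well plates, with a 48-hour exposure period. Here, GI50 denotes the concentration required for 50% inhibition of growth. TGI denotes the concentration required for complete inhibition of growth.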

Some test systems named below: ACHN renal; HL-60(TB) leukemia; CCRF-CEM leukemia; MDA-MB-231 breast; SNB-19 CNS; M14 melanoma; KM12 colon; MOLT-4 leukemia; BT-549 breast; SK-MEL-5 melanoma.
Holding throughout (assay): NCI-60 cell line screen, 48 h

Turning to `CN(CCCN)CCCNc1nc2ccccc2c2[nH]c3ccccc3c12`, the GI50 with ACHN renal is 0.409 µM; in the test on HL-60(TB) leukemia it was 0.138 µM; in the test on CCRF-CEM leukemia it was 0.173 µM; in the test on MDA-MB-231 breast, 0.231 µM; with SNB-19 CNS, 0.229 µM; in the test on M14 melanoma, 0.696 µM. For the same compound, the GI50 in the test on KM12 colon was 0.0513 µM; in the test on MOLT-4 leukemia, 0.186 µM; in the test on BT-549 breast, 0.924 µM; in the test with SK-MEL-5 melanoma, 0.747 µM. Further, the TGI in the test with ACHN renal is 4.45 µM; in the test on HL-60(TB) leukemia, 0.59 µM; in the test with CCRF-CEM leukemia, 1.58 µM; in the test on MDA-MB-231 breast it was 0.774 µM; with SNB-19 CNS it was 0.943 µM; in the test on M14 melanoma, 1.93 µM. Besides, the TGI in the test with KM12 colon amounted to 0.314 µM; in the test with MOLT-4 leukemia it was 1.24 µM; with BT-549 breast, 2.15 µM; with SK-MEL-5 melanoma, 1.98 µM.
Take `CCN(CC)c1ccc(C(=C2C=CC(=[N+](CC)Cc3cccc(S(=O)(=O)O)c3)C=C2)c2ccc(N(CC)Cc3cccc(S(=O)(=O)O)c3)cc2)cc1`: the GI50 in the test with ACHN renal is 9.48 µM; with HL-60(TB) leukemia, 4.38 µM; in the test on CCRF-CEM leukemia, 6.59 µM; in the test with MDA-MB-231 breast, 9.61 µM; in the test on SNB-19 CNS, 14.2 µM; in the test with M14 melanoma, 4.93 µM. In addition, the GI50 with KM12 colon is 4.36 µM; in the test with MOLT-4 leukemia, 11.1 µM; in the test with BT-549 breast, 5.45 µM; in the test with SK-MEL-5 melanoma, 10.1 µM. Moreover, the TGI with ACHN renal was above 68.5 µM; with HL-60(TB) leukemia, 17.4 µM; with CCRF-CEM leukemia, 98.5 µM; in the test on MDA-MB-231 breast, above 92.6 µM; with SNB-19 CNS, above 100 µM; with M14 melanoma it was 39.2 µM. The TGI is 28.9 µM in the test with KM12 colon, above 89.7 µM in the test on MOLT-4 leukemia, above 91.7 µM in the test with BT-549 breast and 24.1 µM in the test on SK-MEL-5 melanoma.
Regarding `CCN1C(=O)N(CC)C2C1NN=c1s/c(=C\c3cccnc3)c(=O)n12` (centres undefined), the GI50 in the test with ACHN renal is 0.694 µM; in the test with HL-60(TB) leukemia it was 0.395 µM; in the test with CCRF-CEM leukemia it was 0.41 µM; in the test with MDA-MB-231 breast it was 3.57 µM; in the test on SNB-19 CNS it was 0.676 µM; in the test with M14 melanoma, 0.298 µM. Also, the GI50 in the test on KM12 colon was 0.464 µM; in the test with MOLT-4 leukemia it was 0.596 µM; in the test on BT-549 breast, 1.04 µM; with SK-MEL-5 melanoma, 0.344 µM. Moreover, the TGI with ACHN renal is above 100 µM; in the test on CCRF-CEM leukemia it was above 100 µM; in the test on MDA-MB-231 breast, above 95.3 µM; in the test with SNB-19 CNS, above 100 µM; in the test on M14 melanoma, above 100 µM; in the test on KM12 colon it was above 100 µM. Besides, the TGI with MOLT-4 leukemia was above 100 µM; in the test with BT-549 breast it was 19.9 µM; in the test on SK-MEL-5 melanoma, 12.6 µM.
`CN1CCN(CCc2cccc(C(=O)c3cnn(-c4ccc(F)cc4)c3N)c2)CC1`: the GI50 in the test with ACHN renal, with HL-60(TB) leukemia, in the test on CCRF-CEM leukemia, with MDA-MB-231 breast, with SNB-19 CNS and in the test on M14 melanoma was above 25 µM in each case. Moreover, the GI50 with KM12 colon, with MOLT-4 leukemia, in the test with BT-549 breast and in the test with SK-MEL-5 melanoma was above 25 µM each time. In addition, the TGI with ACHN renal, in the test on HL-60(TB) leukemia, in the test on CCRF-CEM leukemia, in the test with MDA-MB-231 breast, in the test with SNB-19 CNS and in the test with M14 melanoma was above 25 µM in each case. For the same compound, the TGI in the test with KM12 colon, with MOLT-4 leukemia, with BT-549 breast and in the test with SK-MEL-5 melanoma was above 25 µM throughout.
For the compound `CCCCCn1c(=N)n(CC(O)COc2cccc(C)c2)c2ccccc21` (centres undefined), the GI50 was 8.85 µM in the test on ACHN renal; 2.15 µM in the test with HL-60(TB) leukemia; 3.12 µM with CCRF-CEM leukemia; 5.39 µM in the test on MDA-MB-231 breast; 12.3 µM in the test on SNB-19 CNS; 3.26 µM in the test on M14 melanoma. Moreover, the GI50 was 4.02 µM with KM12 colon, 3.08 µM in the test on MOLT-4 leukemia, 9.22 µM in the test with BT-549 breast and 2.75 µM in the test with SK-MEL-5 melanoma. The TGI came out at 23.8 µM in the test on ACHN renal; 4.9 µM with HL-60(TB) leukemia; 15.2 µM in the test on CCRF-CEM leukemia; 18.8 µM with MDA-MB-231 breast; 26.4 µM with SNB-19 CNS; 12.3 µM in the test with M14 melanoma. The TGI came to 15.1 µM in the test with KM12 colon, 11.1 µM in the test with MOLT-4 leukemia, 23.3 µM in the test with BT-549 breast and 7.82 µM in the test with SK-MEL-5 melanoma.
As for `COc1cc(Cl)cc(-c2nn(C(=O)NCCN3CCOCC3)cc2-c2ccncc2)c1`, the GI50 in the test with ACHN renal was 5.52 µM; in the test on HL-60(TB) leukemia, 3.22 µM; in the test on CCRF-CEM leukemia, 5.91 µM; in the test on MDA-MB-231 breast it was 13 µM; in the test with SNB-19 CNS, 7.58 µM; in the test on M14 melanoma, 5.42 µM. For the same compound, the GI50 is 3.79 µM in the test with KM12 colon, 3.78 µM in the test with MOLT-4 leukemia, 3.87 µM with BT-549 breast and 2.59 µM in the test with SK-MEL-5 melanoma. Also, the TGI in the test on ACHN renal is 90.2 µM; with HL-60(TB) leukemia, 95.1 µM; in the test with CCRF-CEM leukemia, above 100 µM; in the test on MDA-MB-231 breast, above 100 µM; in the test on SNB-19 CNS, above 100 µM; in the test with M14 melanoma, 39.5 µM. In addition, the TGI is above 100 µM in the test with KM12 colon, above 100 µM in the test on MOLT-4 leukemia, 35.2 µM in the test with BT-549 breast and 13.1 µM with SK-MEL-5 melanoma.
In the case of `COC(=O)[C@H](Cc1cn(C)cn1)NC(=O)[C@H](Cc1c[nH]c2ccccc12)NC(=O)Nc1cc(C(F)(F)F)cc(C(F)(F)F)c1`, the GI50 in the test on ACHN renal, in the test on HL-60(TB) leukemia, in the test with CCRF-CEM leukemia, in the test with MDA-MB-231 breast, in the test on SNB-19 CNS and in the test on M14 melanoma was above 10 µM in each case. The GI50 in the test on KM12 colon, in the test with MOLT-4 leukemia, in the test on BT-549 breast and with SK-MEL-5 melanoma was above 10 µM each time. In addition, the TGI with ACHN renal, with HL-60(TB) leukemia, in the test on CCRF-CEM leukemia, with MDA-MB-231 breast, in the test with SNB-19 CNS and in the test with M14 melanoma was above 10 µM throughout. The TGI with KM12 colon, in the test with MOLT-4 leukemia, with BT-549 breast and in the test with SK-MEL-5 melanoma was above 10 µM each time.

Values taken from PubChem BioAssay (NCI).
